Measurements: patent US8343912B2, “Antibiotic compositions for the treatment of gram negative infections” (priority 2008, dated 2013)
Values after ≈ are worked out from the molar mass of the structure shown. Numbered stars: 1 amine (or outer) side, 2 acyl side, 3 side chain; on linkers, the order of the positions; unused ones are H or OH. Bridge positions count the residues as written; N and C are the ends. Square brackets hold non-standard residues; d marks the D form. Peptide text beside a SMILES is read from it. * marks the point of attachment. NH(2-ClPh) = Clc1ccccc1N*; Dab = NCC[C@H](N)C(=O)O; CO = O=C([*:1])[*:2]

Tests used:
[1] = system: E. coli 1699; test: MIC, broth microdilution; format: cell-based, Escherichia coli; conditions: Table 3B
Method: (§1) MIC testing was performed according to Clinical and Laboratory Standards Institute (CLSI) M7-A7 (2006) broth microdilution methods. Unless otherwise indicated, MIC values are provided in units of micrograms per milliliter.
(§2) One day prior to testing, individual colonies were isolated by streaking onto rich, non-selective Tryptic Soy agar with 5% lysed sheeps blood (TSAB) with incubation at 35-37° C. for 18-24 hours.
(§3) Cultures were prepared by touching 3-5 colonies into 3 mL of Cation adjusted Mueller Hinton Broth (caMHB) in a 14 mL tube (CaMHB was prepared and sterilized according to manufacturer's specifications). Cultures were grown at 37° C. 200 rpm for approximately four hours prior to density adjustment for addition to the MIC assay.
(§4) OD600 of growing cultures was measured and adjusted to approximately 10^5 colony forming units per mL (CFU/mL) in caMHB for MIC inoculation (approximately OD600 0.001).
(§5) Diluted cultures were used to inoculate 50 μL per well in broth microdilution assays (final volume 100 μl per well; compounds were prepared in two-fold dilutions).
(§6) Plates were incubated 16-20 hrs at 37° C., with shaking at 200 rpm.
(§7) OD600 was determined for all wells. Growth was defined as OD600>0.1. MICs were defined as the lowest concentration producing no visible turbidity (OD600<0.1).

[2] = system: Rat kidney proximal tubule cells; test: Cell culture cytotoxicity assay (ATP bioluminescence, LLC-PK1); format: cell-based; conditions: LLC-PK1, 24 hours, ATP readout
Method: Day 1: 1×10^5 to 2×10^5 cellswere inoculated (Cell line: LLC-PK1) per flask, containing 4 mL/T25 flask of medium DMEM-F12 (50/50) media supplemented with 10% FBS (Fetal Bovine Serum). The cells were then incubated at 37° C., 5% CO2, 80% RH.
Day 4: The cell cultures were examined to determine 80% confluency. To trypsinize of the 80% confluent flasks, 4 mL of DMEM-F12-10% FBS media was prepared per flask. The media was aspirated from the flask and 5 mL of Versene was added to rinse the flask. The Versene was aspirated and 2 mL of triple Express solution (trypsin solution) was added. The cells were incubated for 5 min at room temperature and examined via microscopy for the rounding of the cells and their detachment. To speed up the reaction, the flask can be incubated at 37° C. for 3 minutes. 4 mL of media (DMEM-F12-10%FBS) was added to stop the reaction. Using a 5 mL pipette, the completed reaction was pipetted up and down to ensure that the cells were properly detached from the flask and from each others. The cell number was counted using a hemocytometer slide. 100 μL of cell suspension was transferred to a tube and 100 μL of Trypan Blue was added. Inoculum for 96 well is 10,000 cells per well. For one 96 well plate, 26.3 μL×110 well=2893 μL total. 2.9 mL of cell suspension was mixed with 8.1 mL of media DMEM-F12-10% FBS and 100 μL was distributed to each well using a multichannel pipetter. The plate was then Incubated for 24 h at 37° C.
Day 5: DMEM-F12 (no FBS) medium was dispensed into tubes with the test article to achieve final concentrations of […]. The 96 well plate was taken off the incubator and media was removed from each well using multichannel pipetter. 80 μL of serially diluted compounds of Formula (I) was added to each well. Every set of concentration was done in triplicate. Media and positive controls were added to each plate and the plates were incubated for 24 hours at 37° C.
Day 6: The plates were taken from the incubator, the media was removed from each well, and 100 μL of fresh media DMEM-F12 (this is equivalent to a rinse and the media can be replaced with PBS) was added. The media is then removed and 80 μL of cell lysis solution is added. After 5 minutes, 80 μL of sterile filtered high quality water was added to each well. Using a white or black 96 well reaction plate, 80 μL of 25× diluted ATP mix reagent (Sigma Bioluminescent Somatic Cell Assay Kit [cat #FL-ASC]) was added into one column. 80 μL of diluted ATP standards (dilutions used: 250, 500, 1000, 2000 and 4000) was added and the plate was read immediately in the topcount with a 2 second read time. In another white or black 96 well reaction plate, 80 μL of 25× diluted ATP mix reagent (plate A) was added and 80 μL of lysis-water solution was transferred to each column of plate A. The plate was then read immediately in the topcount with a 2 second read time. This process was repeated for next consecutive plate and the EC50 for certain compounds of Formula I were calculated and provided in Table 4.

[3] = system: K. pneumonia 21; test: MIC, broth microdilution; format: cell-based, Klebsiella pneumoniae; conditions: Table 3B
Method: as §1, §2, §3, §4, §5, §6, §7

[4] = system: female cynomolgus monkeys; test: Seven days of repeated IV administration, kidney findings (QD/BID mg/kg doses); format: in vivo, cynomolgus monkey; conditions: 6 mg/kg BID
Method: The kidney findings in female cynomolgus monkeys following seven days of repeated IV administration of Compound 5 were evident at dose levels of 6 mg/kg BID, 6 mg/kg QD, and 9 mg/kg QD, and to a lesser degree of severity at 3 and 4.5 mg/kg BID.

[5] = Dissociation constant (pKa)
[6] = Hygroscopicity; format: physicochemical
[7] = Solubility profile
[8] = Lipophilicity (Log P)
[9] = system: indole-positive Proteae, P. mirabilis, and S. marcescans; test: In vitro activity against organisms intrinsically resistant to colistin; format: cell-based
Method: To evaluate the potency and spectrum of compounds of Formula (I), (i.e., Compounds designated 5 and 6), a study was conducted that put together a panel of 455 Gram negative strains, which included multi-drug resistant clinical isolates selected from various surveillance programs. Table 3A lists the strains that were included in the study and the activity of Compound 5, Compound 6, and colistin (polymyxin E, abbreviated PME). Strains with acquired resistance to colistin and/or carbapenems and/or broad spectrum cephalosporins were pre-selected and included in all organism groups evaluated.
as §1

CC(C)C[C@@H]1NC(=O)[C@@H](Cc2ccccc2)NC(=O)[C@H](CCN)NC(=O)[C@@H](NC(=O)[C@H](CCN)NC(=O)[C@@H](NC(=O)[C@H](CCN)NC(=O)Nc2ccccc2Cl)[C@@H](C)O)CCNC(=O)[C@H]([C@@H](C)O)NC(=O)[C@H](CCN)NC(=O)[C@H](CCN)NC1=O [Compound 5, (S)-4-amino-N-((2S,3R)-1-((S)-4-amino-1-oxo-1-((3S,6S,9S,12S,15R,18S,21S)-6,9,18-tris(2-aminoethyl)-15-benzyl-3-((R)-1-hydroxyethyl)-12-isobutyl-2,5,8,11,14,17,20-heptaoxo-1,4,7,10,13,16,19-heptaazacyclotricosan-21-ylamino)butan-2-ylamino)-3-hydroxy-1-oxobutan-2-yl)-2-(3-(2-chlorophenyl)ureido)butanamide] ({NH(2-ClPh)-CO}-[Dab]T[Dab][Dab][Dab][dF]L[Dab][Dab]T; lactam 4-C)
MIC E. coli 1699 [1]: 2 micrograms/mL
EC50 Rat kidney proximal tubule cells [2]: >1000 micrograms/ml
MIC K. pneumonia 21 [3]: 2 micrograms/mL
blood urea nitrogen (BUN) and serum creatinine ([4]; 6 mg/kg QD, 9 mg/kg QD): increase
kidney histopathological changes ([4]; 6 and 9 mg/kg QD, lesser severity at 3 and 4.5 mg/kg BID, 7 days IV): minimal to mild degeneration/necrosis and regeneration of tubular epithelium
pKa [5]: 8.17
Hygroscopicity [6]: Very hygroscopic
solubility ([7]; ethanol): 200 µg/mL (≈ 164 µM)
solubility ([7]; water): > 300000 µg/mL
logP [8]: < -1
activity against organisms intrinsically resistant to colistin [9]: limited activity
